Test results as given in publication PMC9767854, “Discovery and mechanism studies of a novel ATG4B inhibitor Ebselen by drug repurposing and its anti-colorectal cancer effects in mice” (Cell & Bioscience, 2022).

Assays:
[1] = molecular target: T1, Caspase 2 (Homo sapiens, UniProt P42575); test: Caspase activity assay kit, CASP2; type: biochemical; details: 10 μM
T1 construct: Beyotime (assay kit only) C1107
Procedure: (§1) The enzyme activity of Caspase 1, Caspase 2, Caspase 3, Caspase 4, Caspase 6, Caspase 8 and Caspase 9 were determined via the activity assay kits (C1101, C1107, C1115, C1121, C1135, C1151 and C1157) from Beyotime (Shanghai, China). Then the experimental procedures were performed according to the manufacturer’s protocols.

[2] = tested on: Caspase 1, 2, 3, 4, 6, 8 and 9; test: Caspase activity assay kits, caspase panel; type: biochemical; details: 10 μM; most caspases other than CASP2 and CASP3
Procedure: as §1

[3] = molecular target: T2, ATG4B C74S mutant (Homo sapiens, UniProt Q9Y4P1, C74S); test: In vitro thermal shift assay, ATG4B C74S mutant; type: binding; details: C74S mutant 100 nM, Ebselen 1 μM, compared with DMSO
T2 construct: 6xHis; made in house; host or cells: E. coli BL21(DE3)
T2 sequence (Q9Y4P1 whole entry C74S): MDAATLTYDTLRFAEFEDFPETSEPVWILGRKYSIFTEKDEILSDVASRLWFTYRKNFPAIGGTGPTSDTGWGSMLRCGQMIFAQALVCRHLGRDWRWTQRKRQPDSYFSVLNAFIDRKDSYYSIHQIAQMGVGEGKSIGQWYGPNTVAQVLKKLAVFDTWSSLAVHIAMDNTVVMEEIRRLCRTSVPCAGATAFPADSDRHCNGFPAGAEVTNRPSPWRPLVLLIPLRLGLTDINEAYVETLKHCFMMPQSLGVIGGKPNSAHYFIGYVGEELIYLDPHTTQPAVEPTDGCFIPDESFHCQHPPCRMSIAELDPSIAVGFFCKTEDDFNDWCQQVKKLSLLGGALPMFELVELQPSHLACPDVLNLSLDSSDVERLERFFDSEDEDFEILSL
Procedure: For in vitro thermal shift assay, recombinant protein ATG4B or C74S mutant (100 nM) was incubated with Ebselen (1 μM) (DMSO as control) in the PCR tubes. The PCR instrument program was set at 25 °C for 10 min, 37 °C to 70 °C for 30 min and followed by cooling tubes for 5 min at room temperature. Then centrifuged at 12,000 rpm for 10 min at 4 °C, soluble fractions were separated from precipitates to be analyzed by SDS-PAGE and immunoblotting.

[4] = molecular target: T3, ATG4B (Homo sapiens, UniProt Q9Y4P1); test: Denaturing mass spectrometry of covalent binding; details: ATG4B 20 μM, compound 60 μM, 1 h at 37 °C; shift of 275 Da on 57,200 Da form
T3 construct: 6xHis; made in house; host or cells: E. coli BL21(DE3)
T3 sequence (Q9Y4P1 1-393): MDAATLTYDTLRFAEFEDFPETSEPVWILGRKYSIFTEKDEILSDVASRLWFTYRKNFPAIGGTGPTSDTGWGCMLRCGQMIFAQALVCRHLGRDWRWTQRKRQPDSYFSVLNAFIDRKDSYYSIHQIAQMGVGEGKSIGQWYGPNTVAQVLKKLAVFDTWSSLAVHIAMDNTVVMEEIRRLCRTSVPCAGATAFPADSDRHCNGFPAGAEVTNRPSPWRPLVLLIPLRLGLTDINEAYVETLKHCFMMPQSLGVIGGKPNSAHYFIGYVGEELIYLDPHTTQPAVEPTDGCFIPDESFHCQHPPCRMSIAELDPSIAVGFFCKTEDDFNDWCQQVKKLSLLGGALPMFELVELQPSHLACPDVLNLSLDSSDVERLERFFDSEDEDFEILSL
Procedure: Analysis of covalent binding between protein and ligand was performed by denaturing mass spectrometry. ATG4B WT and related mutant (20 μM) were incubated with or without compound (60 μM) in phosphate buffer for 1 h at 37℃. Then the samples were desalted using ultrafiltration spin columns (0.5 ml, 10 kDa MWCO, PES, Sartorius) and buffer-exchanged into Milli-Q water. Subsequently, samples were diluted containing 0.1% v/v formic acid before being subjected to denaturing electrospray ionization mass spectrometry analysis (TOF, Waters, SYNAPT G2-Si). Spectrum data were processed with MassLynx (Waters).

[5] = molecular target: T4, ATG4B 2CS (C292/361S) mutant (Homo sapiens, UniProt Q9Y4P1, C292S/C361S); test: FRET-based assay, ATG4B 2CS mutant; type: biochemical; details: Ebselen 0.5 μM, 15-90 min; read-out: inhibition rate against ATG4B 2CS
T4 construct: 6xHis; made in house; host or cells: E. coli BL21(DE3)
T4 sequence (Q9Y4P1 whole entry C292S/C361S): as the sequence (Q9Y4P1 whole entry C74S) above, with S74C, C292S, C361S counted along it
Procedure: FRET-based assay for ATG4B or ATG4A activity was operated as previously described [5, 17]. Briefly, Recombinant protein ATG4B (0.75 μg/ml) or ATG4A (5 μg/ml) was incubated with compounds in reaction buffer (150 mM NaCl, 20 mM Tris–HCl, pH 8.0, 0.1% CHAPS, 1 mM EDTA) at 37 °C. After 30 min, substrate FRET-GATE-16 (50 μg/ml) was added to a final volume of 50 μl. The reaction was recorded via relative fluorescence intensity ratio of 527 nm/477 nm (RFU). The final inhibition rate of the compound for ATG4 was calculated as: (RFUcompound-RFUNC)/(RFUCON-RFUNC) × 100%; respectively, NC as negative control without inhibitor, CON as control without enzymes. For ATG4 activity determination in cells and tissues, cells or separated tumor samples were homogenized in a native lysis buffer (150 mM NaCl, 20 mM Tris–HCl, pH 7.6, 1% TritonX-100, 1 mM EDTA) without protease inhibitors. Then 5 μg total proteins from each sample was added into FRET assay system after clean supernatant proteins were separated. The reaction was recorded via relative fluorescence intensity ratio of 527 nm/477 nm. Finally, the inhibition rates of ATG4B were calculated with the vehicle or CM group as the negative control (ATG4 activity defined as 100%).

[6] = tested on: SW620; test: Autophagy flux by LC3B-II western blot in SW620; type: cell-based; details: Ebselen 10 μM with CQ 40 μM
Procedure: (§2) Fig. 5 Ebselen suppresses autophagy flux via inhibition of ATG4B. A, B HeLa cells were treated with Torin 1 (2 μM) or CQ (40 μM) and detected by western blot. C, D SW620 cells were transduced with sgCon and sgATG4B lentiviruses, respectively. Then cells were treated with CQ (40 μM) and detected by western blot. E, F HCT116 were treated with Ebselen (5 and 10 μM) or CQ (40 μM) and subjected to western blot. G, H SW620 were treated with Ebselen (10 μM) or CQ (40 μM) and western blotting was carried out to detect the protein levels. I, J Immunofluorescence analysis of endogenous LC3B in HCT116 treated with Ebselen (10 μM) or CQ (40 μM). Dots numbers for LC3B were derived from counting at least 20 cells and 5 fields from three independent replicated experiments. Bar = 10 μm. K HCT116 cells were treated with 2 μM Torin 1 in the presence or absence of 10 μM Ebselen for 12 h, then the level ratio of long-lived proteins was measured by flow cytometry
Immunoblotting assay was performed reportedly previously. Commonly, cells were lysed in ice-cold RIPA lysis buffer (Beyotime, P0013B) supplemented with Pierce™ protease inhibitor tablet (ThermoFisher Scientific, A32965). […]

[7] = tested on: HCT116; test: Immunofluorescence of endogenous LC3B dots; type: cell-based; details: Ebselen 10 μM, CQ 40 μM
Procedure: as §2
Immunofluorescence staining was carried out as described before. Respectively, cells seeded on glass-bottom 35-mm dishes (SORFA bio, 201,200) were washed with PBS and fixed for 20 min at room temperature with 4% paraformaldehyde after related administration. Subsequently, dishes were permeabilized with 0.3% Triton X-100 in PBS, and washed to be blocked in goat serum (Boster, AR1009) for 1 h before incubated with primary antibody overnight at 4℃. […]

[8] = Body weight and organ H&E in xenografted mice; type: in vivo, BALB/c-nu/nu mice; details: 5, 10, 20 mg/kg i.p. every two days
Procedure: Four- to six-weeks-old BALB/C nu/nu female mice purchased from the Experimental Animal Center of Sun Yat-Sen University, were approved by the Animal Ethics Committee at Sun Yat-sen University and kept in specific-pathogen-free environment. Approximately 2 × 10^6 SW620 cells or 1 × 10^7 HCT116 cells were injected subcutaneously into the dorsal flank on the right side of the mice. Different groups were divided randomly when the tumor volume was approximately 60–80 mm^3, before drug administration intraperitoneally (i.p.). Tumor volume was measured by calipers and calculated using the equation: 0.5 × length × width^2. At the end of the experiments, the mice were sacrificed and tumors were dissected and weighed. In particular, we employed Servicebio (Wuhan, China) to carry out H&E staining and immunohistochemistry assay.
Supplementary file 13578_2022_944_MOESM1_ESM.docx: Additional file 1: Figure S1. Screening of ATG4B inhibitors based on the approved drugs library by FRET assay. […] (D) Candidate compound number and name correspondence table, and IC50 calculation of nine commercially available compounds for ATG4B by FRET assay. Figure S2. […] Figure S3. […] Figure S5. […] Figure S6.

T1 sequence (P42575 170-325 limits assumed, species assumed): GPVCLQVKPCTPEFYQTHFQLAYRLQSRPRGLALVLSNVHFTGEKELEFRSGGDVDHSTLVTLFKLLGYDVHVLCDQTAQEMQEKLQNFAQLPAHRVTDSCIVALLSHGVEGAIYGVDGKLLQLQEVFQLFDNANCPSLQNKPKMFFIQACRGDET
T1 sequence (P42575 348-452 limits assumed, species assumed): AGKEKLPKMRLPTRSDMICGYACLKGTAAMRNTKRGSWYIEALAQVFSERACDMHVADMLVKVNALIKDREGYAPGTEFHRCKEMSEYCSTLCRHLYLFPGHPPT

O=c1c2ccccc2[se]n1-c1ccccc1 [Ebselen]
effect on CASP2 activity [1]: certain inhibition | effect on most caspase activities [2]: no significant effect | thermal stability of C74S mutant [3]: still a little increased | covalent binding to ATG4B [4]: covalently binds to ATG4B | inhibition at 0.5 µM [5]: < 90% | autophagic flux (LC3B-II) [6]: inhibition of autophagic flux | number of endogenous LC3B dots [7]: decreased | body weight change or organs damage [8]: no obvious mice body weight change or organs damage
